Experimental data from article PMC5299059 (Cell metabolism, 2017).

Tests used:
BRAF V600R [1] = molecular target: T1, BRAF V600R (Homo sapiens, UniProt P15056, V600R); experiment: […]-labeled acetoacetate radiometric binding to purified bead-bound BRAF
BRAF V600D [2] = molecular target: T2, BRAF V600D (Homo sapiens, UniProt P15056, V600D); experiment: as above
BRAF V600E [3] = molecular target: T3, BRAF V600E (Homo sapiens, UniProt P15056, V600E); experiment: as above
BRAF V600R [4] = molecular target: T1, BRAF V600R; experiment: […]-acetoacetate competition binding
BRAF V600D [5] = molecular target: T2, BRAF V600D; experiment: […]-acetoacetate competition binding
BRAF V600E [6] = molecular target: T3, BRAF V600E; experiment: […]-acetoacetate competition binding

T1 sequence (P15056 whole entry V600R): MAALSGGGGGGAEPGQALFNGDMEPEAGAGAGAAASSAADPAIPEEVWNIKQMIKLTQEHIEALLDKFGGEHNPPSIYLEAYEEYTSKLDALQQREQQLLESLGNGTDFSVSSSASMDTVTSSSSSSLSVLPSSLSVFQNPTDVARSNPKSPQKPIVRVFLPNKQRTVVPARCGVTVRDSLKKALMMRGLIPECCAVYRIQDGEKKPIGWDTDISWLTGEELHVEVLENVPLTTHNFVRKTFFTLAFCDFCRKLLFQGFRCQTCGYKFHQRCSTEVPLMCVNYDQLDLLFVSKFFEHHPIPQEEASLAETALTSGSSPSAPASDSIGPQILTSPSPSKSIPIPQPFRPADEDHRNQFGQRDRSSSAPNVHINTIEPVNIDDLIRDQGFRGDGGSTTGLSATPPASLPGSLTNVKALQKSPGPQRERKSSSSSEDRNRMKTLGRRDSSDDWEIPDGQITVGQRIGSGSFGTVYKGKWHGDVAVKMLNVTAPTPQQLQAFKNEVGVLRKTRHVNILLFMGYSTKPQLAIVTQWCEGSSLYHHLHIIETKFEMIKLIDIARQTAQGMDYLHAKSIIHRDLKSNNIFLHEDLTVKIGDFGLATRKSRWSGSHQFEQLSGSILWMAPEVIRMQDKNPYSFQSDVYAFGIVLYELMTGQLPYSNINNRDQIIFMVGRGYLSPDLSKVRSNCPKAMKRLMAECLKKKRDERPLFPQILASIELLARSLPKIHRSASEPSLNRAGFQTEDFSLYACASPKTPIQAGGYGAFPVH
T2 sequence (P15056 whole entry V600D): as the sequence (P15056 whole entry V600R) above, with R600D counted along it
T3 sequence (P15056 2-766 V600E): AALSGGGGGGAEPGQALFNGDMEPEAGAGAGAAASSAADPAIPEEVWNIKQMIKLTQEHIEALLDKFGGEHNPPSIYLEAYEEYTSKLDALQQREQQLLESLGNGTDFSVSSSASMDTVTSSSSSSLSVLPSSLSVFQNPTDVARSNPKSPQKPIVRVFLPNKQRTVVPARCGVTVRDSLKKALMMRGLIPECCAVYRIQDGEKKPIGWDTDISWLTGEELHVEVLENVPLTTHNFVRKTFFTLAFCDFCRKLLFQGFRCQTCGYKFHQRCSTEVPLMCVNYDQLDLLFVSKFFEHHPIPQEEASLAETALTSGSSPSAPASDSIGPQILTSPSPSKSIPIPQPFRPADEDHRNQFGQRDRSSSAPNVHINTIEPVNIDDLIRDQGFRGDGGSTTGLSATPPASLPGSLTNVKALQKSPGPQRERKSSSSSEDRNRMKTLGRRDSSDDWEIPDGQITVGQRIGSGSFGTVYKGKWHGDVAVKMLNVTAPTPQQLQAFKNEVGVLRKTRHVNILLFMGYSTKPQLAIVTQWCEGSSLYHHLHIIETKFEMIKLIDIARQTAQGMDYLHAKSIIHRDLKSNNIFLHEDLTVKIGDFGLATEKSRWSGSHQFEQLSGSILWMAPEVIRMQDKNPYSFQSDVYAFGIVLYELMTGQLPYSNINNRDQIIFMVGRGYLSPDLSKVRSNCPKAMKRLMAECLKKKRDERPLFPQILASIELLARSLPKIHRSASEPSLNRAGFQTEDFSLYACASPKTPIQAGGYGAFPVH

CC(=O)CC(=O)O [AA, acetoacetate]
Kd (BRAF V600R [1]): ~113 µM | Kd (BRAF V600D [2]): ~93 µM | Kd (BRAF V600E [3]): ~92 µM

CC(=O)C1C(=O)C=C(C)OC1=O (stereo not drawn) [DHAA, dehydroacetic acid]
Ki (BRAF V600R [4]): ~91 µM | Ki (BRAF V600D [5]): ~88 µM | Ki (BRAF V600E [6]): ~88 µM
